pIC50: −log10 of the molar value. Where two headings read alike, the source gives them in different places.
Assays:
HCC827/OR cells = assay: Cell viability assay (CellTiter-Glo 2.0), osimertinib-resistant HCC827/OR cells; assay type: cell-based, human
Description: (§1) To explore c-MET and AXL mechanisms of EGFR TKI resistance, resistant cells of the EGFR TKI hypersensitive EGFR exon 19 mutant NSCLC cell line, HCC827 and PC9 were generated by exposing these cells to increasing concentrations of EGFR TKI for over 3 months.
(§2) Gefitinib-resistant cells were referred to as HCC827/GR. […] Osimertinib-resistant cells were referred to as HCC827/OR.

HCC827 cells = assay: cells; conditions: Homo sapiens, HCC827, read-out: EGFR TKI IC50 in HCC827 cells
Protocol: (§3) The human cell line HCC827 was purchased from the American Type Culture Collection (Manassas, VA), and the PC9 cell line was obtained from RIKEN Cell Bank (Ibaraki, Japan). […] Gefitinib-resistant cells were referred to as HCC827/GR. […] Osimertinib-resistant cells were referred to as HCC827/OR.
(§4) Cell viability assays were carried out by plating 1,000 cells per well of HCC827 or PC9 resistant cells, respectively, into white transparent-bottom 384-well plates. The cells were treated with each TKI across a 10-dose range from 1 nM to 10,000 nM. After 72 h of drug treatment, cell viability was measured using the CellTiter-Glo 2.0 assay (Promega, Madison, WI).

AXL = target: T1, AXL (Homo sapiens, UniProt P30530); assay: Enzymatic kinase assay (ADP-Glo), AXL; assay type: biochemical; conditions: poly (Glu4, Tyr1) substrate, 60 min room temperature, ADP-GLO luminescence
T1 sequence (P30530 26-894): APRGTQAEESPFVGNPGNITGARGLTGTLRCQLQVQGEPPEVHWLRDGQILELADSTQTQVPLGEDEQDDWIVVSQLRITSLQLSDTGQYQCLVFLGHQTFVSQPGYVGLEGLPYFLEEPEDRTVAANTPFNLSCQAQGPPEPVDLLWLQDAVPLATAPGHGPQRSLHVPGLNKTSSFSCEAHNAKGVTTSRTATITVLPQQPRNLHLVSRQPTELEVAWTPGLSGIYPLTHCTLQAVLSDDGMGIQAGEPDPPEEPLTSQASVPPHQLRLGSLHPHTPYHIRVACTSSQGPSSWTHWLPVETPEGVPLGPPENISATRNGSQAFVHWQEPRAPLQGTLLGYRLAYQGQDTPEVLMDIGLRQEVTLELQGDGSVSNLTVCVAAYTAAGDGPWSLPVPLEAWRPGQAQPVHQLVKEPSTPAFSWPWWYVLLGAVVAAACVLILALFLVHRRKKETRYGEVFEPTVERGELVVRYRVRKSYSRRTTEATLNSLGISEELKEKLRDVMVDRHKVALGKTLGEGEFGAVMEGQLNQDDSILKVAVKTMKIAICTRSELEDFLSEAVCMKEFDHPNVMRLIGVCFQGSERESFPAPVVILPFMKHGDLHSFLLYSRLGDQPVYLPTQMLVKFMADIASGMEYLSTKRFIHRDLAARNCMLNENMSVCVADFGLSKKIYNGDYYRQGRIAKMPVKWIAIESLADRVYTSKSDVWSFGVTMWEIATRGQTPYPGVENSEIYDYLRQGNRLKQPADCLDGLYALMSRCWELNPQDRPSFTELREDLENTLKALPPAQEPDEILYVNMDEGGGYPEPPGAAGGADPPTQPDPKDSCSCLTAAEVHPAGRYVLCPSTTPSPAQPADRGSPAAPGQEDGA
Protocol: (§5) All the kinase reactions were performed in 5 μL using tyrosine kinase buffer with 0.2 μg/μL poly (Glu4, Tyr1) substrate, 10 µM ATP, serial dilution of the inhibitor, and incubated at room temperature for 60 min. After the indicated incubation times, 5 μL ADP-GLO™ reagent (Promega, Madison, WI) was added to the reactions and the plate was incubated at room temperature for 40 min. […] All 384-well assay plates were read using a GLOMAX™ Discover Microplate Luminometer from Promega (Madison, WI). To plot, analyze the data and calculate all kinase reaction biochemical values, both Microsoft Excel and Prism from GraphPad 7 Software (La Jolla, CA) were used.

HCC827/GR cells = assay: Cell viability assay (CellTiter-Glo 2.0), gefitinib-resistant HCC827/GR cells; assay type: cell-based, human; conditions: 72 h drug treatment, read-out: Relative cell viability, IC50 HCC827GR
Procedure, shortened: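 Gefitinib-resistant HCC827 cells, derived by over 3 months' escalating EGFR TKI exposure, seeded at 1,000 cells/well. Treated 72 h with a 10-point dose range from 1 nM to 10,000 nM. Viability read by CellTiter-Glo 2.0 luminescence.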

HCC827/ER cells = assay: Cell viability assay (CellTiter-Glo 2.0), erlotinib-resistant HCC827/ER cells; assay type: cell-based, human; conditions: 72 h drug treatment, read-out: Relative cell viability, IC50 HCC827ER
Description: as §1, §2

MER = target: T2, MER (Homo sapiens, UniProt Q12866); assay: Enzymatic kinase assay (ADP-Glo), MER; assay type: biochemical; conditions: poly (Glu4, Tyr1) substrate, 60 min room temperature, ADP-GLO luminescence
T2 sequence (Q12866 21-999): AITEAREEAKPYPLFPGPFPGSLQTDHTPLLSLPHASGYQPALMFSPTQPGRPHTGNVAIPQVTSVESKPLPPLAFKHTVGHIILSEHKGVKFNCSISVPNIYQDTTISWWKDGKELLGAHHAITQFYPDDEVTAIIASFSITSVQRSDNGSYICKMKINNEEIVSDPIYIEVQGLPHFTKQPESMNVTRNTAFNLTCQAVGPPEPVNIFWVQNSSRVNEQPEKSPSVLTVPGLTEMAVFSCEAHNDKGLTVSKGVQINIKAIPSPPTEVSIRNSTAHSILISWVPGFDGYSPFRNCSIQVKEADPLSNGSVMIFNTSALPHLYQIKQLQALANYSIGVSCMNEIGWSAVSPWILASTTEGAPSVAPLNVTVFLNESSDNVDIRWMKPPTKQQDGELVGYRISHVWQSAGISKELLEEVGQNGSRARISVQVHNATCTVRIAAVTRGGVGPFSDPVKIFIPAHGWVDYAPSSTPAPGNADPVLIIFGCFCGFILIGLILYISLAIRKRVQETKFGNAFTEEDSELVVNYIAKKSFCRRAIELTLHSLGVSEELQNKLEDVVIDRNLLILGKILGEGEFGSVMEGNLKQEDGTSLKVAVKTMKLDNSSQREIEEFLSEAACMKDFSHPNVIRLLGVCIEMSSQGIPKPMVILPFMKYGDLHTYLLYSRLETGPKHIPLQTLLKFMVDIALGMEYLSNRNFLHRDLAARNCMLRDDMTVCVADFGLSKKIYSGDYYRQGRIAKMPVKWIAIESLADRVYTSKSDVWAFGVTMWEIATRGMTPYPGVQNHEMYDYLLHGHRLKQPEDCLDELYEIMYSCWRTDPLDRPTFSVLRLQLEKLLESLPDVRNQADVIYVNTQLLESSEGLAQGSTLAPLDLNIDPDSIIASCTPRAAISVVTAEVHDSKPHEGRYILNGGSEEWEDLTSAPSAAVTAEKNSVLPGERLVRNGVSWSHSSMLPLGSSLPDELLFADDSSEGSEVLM
Protocol: All the kinase reactions were performed in 5 μL using tyrosine kinase buffer with 0.2 μg/μL poly (Glu4, Tyr1) substrate, 10 µM ATP, serial dilution of the inhibitor, and incubated at room temperature for 60 min. After the indicated incubation times, 5 μL ADP-GLO™ reagent (Promega, Madison, WI) was added to the reactions and the plate was incubated at room temperature for 40 min. Then, 10 μL of kinase detection reagent was added and after an incubation time of 40 min, luminescence was recorded and IC50 values were determined (Table 1). All 384-well assay plates were read using a GLOMAX™ Discover Microplate Luminometer from Promega (Madison, WI). To plot, analyze the data and calculate all kinase reaction biochemical values, both Microsoft Excel and Prism from GraphPad 7 Software (La Jolla, CA) were used.
as §5, with “To plot, analyze the data and calculate all kinase reaction biochemical values, both Microsoft Excel and Prism from GraphPad 7 Software (La Jolla, CA) were used.” left out

c-MET = c-MET (Homo sapiens, UniProt P08581); assay: Enzymatic kinase assay (ADP-Glo), c-MET; assay type: biochemical; conditions: poly (Glu4, Tyr1) substrate, 60 min room temperature, ADP-GLO luminescence
Chain of c-MET (P08581 25-1390): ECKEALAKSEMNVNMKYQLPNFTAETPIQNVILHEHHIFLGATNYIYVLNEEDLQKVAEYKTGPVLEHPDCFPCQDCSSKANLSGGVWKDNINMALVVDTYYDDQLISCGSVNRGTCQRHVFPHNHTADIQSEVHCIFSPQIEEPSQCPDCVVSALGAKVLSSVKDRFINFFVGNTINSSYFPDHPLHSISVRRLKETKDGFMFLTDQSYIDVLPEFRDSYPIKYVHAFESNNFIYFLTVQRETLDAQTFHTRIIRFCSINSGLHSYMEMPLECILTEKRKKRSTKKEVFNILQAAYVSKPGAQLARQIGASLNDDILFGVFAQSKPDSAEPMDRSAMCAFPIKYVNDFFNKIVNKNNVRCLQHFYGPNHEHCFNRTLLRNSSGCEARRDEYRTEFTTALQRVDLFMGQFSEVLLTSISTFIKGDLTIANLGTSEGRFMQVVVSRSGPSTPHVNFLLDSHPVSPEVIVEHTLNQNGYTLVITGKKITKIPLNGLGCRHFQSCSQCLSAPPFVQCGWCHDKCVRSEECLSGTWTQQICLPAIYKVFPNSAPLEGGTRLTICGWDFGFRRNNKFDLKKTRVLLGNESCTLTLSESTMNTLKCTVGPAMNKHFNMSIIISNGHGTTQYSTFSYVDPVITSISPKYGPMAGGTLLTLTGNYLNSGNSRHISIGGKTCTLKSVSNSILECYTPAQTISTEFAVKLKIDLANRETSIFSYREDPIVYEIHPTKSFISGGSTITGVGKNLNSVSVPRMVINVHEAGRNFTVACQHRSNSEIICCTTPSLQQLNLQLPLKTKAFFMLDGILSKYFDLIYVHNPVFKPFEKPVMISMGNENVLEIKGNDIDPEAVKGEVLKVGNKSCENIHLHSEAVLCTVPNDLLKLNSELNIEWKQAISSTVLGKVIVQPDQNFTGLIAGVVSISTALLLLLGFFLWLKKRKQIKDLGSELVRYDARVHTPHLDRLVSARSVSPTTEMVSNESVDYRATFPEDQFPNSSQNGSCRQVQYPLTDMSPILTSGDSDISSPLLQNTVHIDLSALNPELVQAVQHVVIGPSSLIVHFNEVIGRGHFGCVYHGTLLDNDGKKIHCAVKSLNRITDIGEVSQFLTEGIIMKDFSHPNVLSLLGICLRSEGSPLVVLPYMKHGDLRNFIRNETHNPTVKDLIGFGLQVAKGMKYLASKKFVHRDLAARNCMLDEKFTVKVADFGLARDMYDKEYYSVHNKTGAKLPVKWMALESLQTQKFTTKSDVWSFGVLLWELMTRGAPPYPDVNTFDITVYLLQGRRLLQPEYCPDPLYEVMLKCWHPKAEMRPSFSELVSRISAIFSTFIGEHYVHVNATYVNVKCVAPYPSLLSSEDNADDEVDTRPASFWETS
Protocol: as §5

PC9/ER cells = assay: Cell viability assay (CellTiter-Glo 2.0), erlotinib-resistant PC9/ER cells; assay type: cell-based
Description: as §1, §2

PC9 cells = assay: Cell viability assay, parental PC9 cells; assay type: cell-based; conditions: Homo sapiens, PC-9; parental EGFR TKI-sensitive cells
Protocol: as §3, §4

[1] = Table 4, combinations of EGFR TKIs and inhibitor of Formula (I)
[2] = Table 2, EGFR TKI resistant cells, combination with EGFR TKI

With C=CC(=O)Nc1cc(Nc2nccc(-c3cn(C)c4ccccc34)n2)c(OC)cc1N(C)CCN(C)C [osimertinib, reference compound] the “higher resistance than the parental cells, HCC827/OR” value (HCC827/OR cells; HCC827/OR versus parental HCC827) was 3,000 fold, the pIC50 (HCC827/OR cells; Homo sapiens, HCC827, read-out: EGFR TKI IC50 in HCC827/OR cells) was < 6.00 and the pIC50 (HCC827 cells) was > 9.52.
“N-(4-(2-amino-3-(3-piperidin-4-yl)prop-1-ynyl)pyridin-4-yloxy)-3-fluorophenyl)-3-cyclohexyl-1-ethyl-2,4-dioxo-1,2,3,4-tetrahydropyrimidine-5-carboxamide [Example 65]” was tested, and the pIC50 (HCC827/OR cells; Table 4, 72 h drug treatment, combinations of EGFR TKIs and inhibitor of Formula (I), read-out: Relative cell viability, IC50 HCC827OR) was > 5.00, the pIC50 (AXL; Table 3) was > 8.00 and the pIC50 (HCC827/GR cells; [1]) was > 6.00. For the same compound, the pIC50 (HCC827/ER cells; [1]) was > 6.00, the pIC50 (MER; Table 3) was > 8.00 and the pIC50 (c-MET; Table 3) was > 7.00. The pIC50 (PC9/ER cells; Table 4, 72 h drug treatment, combinations of EGFR TKIs and inhibitor of Formula (I), read-out: Relative cell viability, IC50 PC9ER) was > 6.00.
For C#Cc1cccc(Nc2ncnc3cc(OCCOC)c(OCCOC)cc23)c1 [erlotinib, reference compound], the pIC50 (PC9 cells) was > 8.00, the pIC50 (PC9/ER cells; Homo sapiens, PC-9/ER, read-out: EGFR TKI IC50 in PC9/ER) was < 5.00 and the “higher resistance than the parental cells, PC9/ER” value (PC9/ER cells; PC9/ER versus parental PC9) was 1,000 fold.
For CC(C)c1c(Oc2ccc(NC(=O)c3cn(C(C)C)c(=O)n(-c4ccc(F)cc4)c3=O)cc2F)ccnc1N [Example 8], the pIC50 (HCC827/OR cells; Table 2, 72 h drug treatment, EGFR TKI resistant cells, combination with EGFR TKI, read-out: Relative cell viability, IC50 HCC827OR) was > 7.00, the pIC50 (AXL; Table 1) was > 8.00 and the pIC50 (HCC827/GR cells; [2]) was > 7.00. The pIC50 (HCC827/ER cells; [2]) was > 7.00, the pIC50 (MER; Table 1) was > 7.00 and the pIC50 (c-MET; Table 1) was > 8.00. For the same compound, the pIC50 (PC9/ER cells; Table 2, 72 h drug treatment, EGFR TKI resistant cells, combination with EGFR TKI, read-out: Relative cell viability, IC50 PC9ER) was > 5.00.
